Experimental data from ChEMBL document CHEMBL1201862, “PubChem BioAssay data set” (2004).
Active and inactive are the calls of the source.

Assays:
Format in all cases: functional
[1] = molecular target: T1, Protein skinhead-1 (Caenorhabditis elegans, UniProt P34707)
T1 sequence (P34707 whole entry): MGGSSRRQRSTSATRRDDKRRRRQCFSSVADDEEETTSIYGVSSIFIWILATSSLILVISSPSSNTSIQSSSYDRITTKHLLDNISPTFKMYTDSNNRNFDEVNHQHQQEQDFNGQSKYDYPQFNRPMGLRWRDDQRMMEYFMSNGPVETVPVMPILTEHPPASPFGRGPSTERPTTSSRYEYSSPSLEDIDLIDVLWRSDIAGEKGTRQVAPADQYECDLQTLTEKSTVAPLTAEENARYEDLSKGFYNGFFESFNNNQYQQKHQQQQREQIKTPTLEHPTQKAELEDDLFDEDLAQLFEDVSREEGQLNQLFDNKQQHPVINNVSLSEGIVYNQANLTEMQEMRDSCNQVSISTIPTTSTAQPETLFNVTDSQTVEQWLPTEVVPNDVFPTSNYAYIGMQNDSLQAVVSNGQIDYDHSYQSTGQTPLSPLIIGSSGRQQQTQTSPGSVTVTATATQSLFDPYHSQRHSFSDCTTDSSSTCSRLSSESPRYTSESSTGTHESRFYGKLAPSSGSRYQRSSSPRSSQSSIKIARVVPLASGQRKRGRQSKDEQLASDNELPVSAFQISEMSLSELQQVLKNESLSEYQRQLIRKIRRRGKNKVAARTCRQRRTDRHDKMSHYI

[2] = molecular target: T2, Corticotropin-releasing factor receptor 2/Corticotropin-releasing factor-binding protein (Homo sapiens, UniProt P24387+Q13324); test: Dose Response confirmation of uHTS hits for small molecule antagonists of the CRF-binding protein and CRF-R2 receptor complex.; conditions: read-out: IC50_Mean
T2 sequence (Q13324 whole entry): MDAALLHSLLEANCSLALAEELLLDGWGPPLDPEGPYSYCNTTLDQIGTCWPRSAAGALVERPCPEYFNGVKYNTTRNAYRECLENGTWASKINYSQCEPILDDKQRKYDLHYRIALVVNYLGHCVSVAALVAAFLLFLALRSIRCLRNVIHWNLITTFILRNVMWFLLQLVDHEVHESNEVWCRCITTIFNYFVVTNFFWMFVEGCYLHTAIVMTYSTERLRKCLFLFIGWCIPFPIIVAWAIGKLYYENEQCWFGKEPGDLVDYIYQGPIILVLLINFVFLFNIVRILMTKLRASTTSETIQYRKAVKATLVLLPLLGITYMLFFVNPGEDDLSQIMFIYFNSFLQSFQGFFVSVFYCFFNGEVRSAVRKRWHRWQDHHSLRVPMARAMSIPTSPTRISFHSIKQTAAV
T2 sequence (P24387 whole entry): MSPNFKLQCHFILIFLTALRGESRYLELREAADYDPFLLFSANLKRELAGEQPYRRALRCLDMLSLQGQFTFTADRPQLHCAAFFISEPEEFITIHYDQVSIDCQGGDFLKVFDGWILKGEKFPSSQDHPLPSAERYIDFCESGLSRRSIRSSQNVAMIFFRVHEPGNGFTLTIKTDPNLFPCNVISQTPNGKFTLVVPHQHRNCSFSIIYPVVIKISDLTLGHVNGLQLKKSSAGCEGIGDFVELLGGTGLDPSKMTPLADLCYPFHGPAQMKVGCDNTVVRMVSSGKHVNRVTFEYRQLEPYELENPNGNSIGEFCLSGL

[3] = molecular target: T2, Corticotropin-releasing factor receptor 2/Corticotropin-releasing factor-binding protein; test: activators of CRF receptor 2 with binding protein – uHTS hits, confirmation (AID 602473); conditions: read-out: EC50_Mean

SMILES | IC50 [1] | IC50 [2] | EC50 [3]
C[C@](N)(CCP(=O)(O)O)C(=O)O | > 100 µM (inactive) |  | 
Clc1ccc(N2CCN(c3ccnc(Cl)n3)CC2)cc1 | 26.3 µM (active) |  | 
CC(C)OC(=O)CSc1nnnn1-c1ccc2c(c1)OCCO2 | > 100 µM (inactive) |  | 
CCn1c(CCC(=O)Nc2nc3c(s2)CCCC3)nc2cc(S(=O)(=O)N(C)C)ccc21 | > 100 µM (inactive) |  | 
O=C(Nc1ccc(OC(=O)N2CCCC2)cc1)N1CCOCC1 | > 100 µM (inactive) |  | 
CCCOc1cc(C)c(S(=O)(=O)NCc2cccs2)cc1C | > 100 µM (inactive) |  | 
O=C(NCc1ccc(F)cc1)C(=O)NCC1OCCN1C(=O)c1ccc(Cl)cc1 (centres undefined) |  | > 47.1 µM (inactive) | > 53 µM (inactive)
C=CCN(c1ccccc1)S(=O)(=O)c1cccc(C(=O)OCC(=O)NCCOC)c1 |  | > 47.1 µM (inactive) | > 53 µM (inactive)
O=Nc1nc2ncccn2c1-c1ccccc1 |  | > 47.1 µM (inactive) | > 53 µM (inactive)
Cc1ccc(-c2ccc(SCC(=O)NCC3CCCO3)nn2)cc1 (centres undefined) |  | > 47.1 µM (inactive) | > 53 µM (inactive)

Now from value to compound:

IC50 [1] | IC50 [2] | EC50 [3] | SMILES
> 100 µM (inactive) |  |  | Cc1nc2nc(CSc3nc4ccccc4s3)cc(O)n2n1
> 100 µM (inactive) |  |  | COc1ccc(Cc2c(-c3ccco3)nc3c(C)cc(Br)cn23)c(C)c1
> 100 µM (inactive) |  |  | Cc1cccc(NC2=NC(=O)/C(=C/c3cccn3C)S2)c1C
 | 5.03 µM (active) | > 53 µM (inactive) | COC(=O)c1cc(C#N)c(N(C)Cc2ccccc2)nc1C
